Data from ChEMBL document CHEMBL1201862, “PubChem BioAssay data set” (2004).
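Protocol summary: plate cells (96-well), add compound at 5 concentrations, incubate 48 h, interpolate endpoints linearly. At the GI50, growth is halved.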 Active and inactive are the calls of the source. Cut-off read from the data, not from the text of the source: active = GI50 up to about 1.1 µM and inactive = higher.

How the values were obtained:
Assay in all cases: NCI-60 cell line screen, 48 h
[1] = test system: LOX IMVI
[2] = test system: SK-MEL-28
[3] = test system: NCI-H226
[4] = test system: OVCAR-8
[5] = test system: T47D
[6] = test system: 786-0
[7] = test system: HT-29
[8] = test system: SK-MEL-5
[9] = test system: UO-31
[10] = test system: SK-OV-3
[11] = test system: KM12
[12] = test system: RXF 393
[13] = test system: NCI/ADR-RES
[14] = test system: UACC-257
[15] = test system: OVCAR-4
[16] = test system: SF-539
[17] = test system: UACC-62
[18] = test system: MOLT-4
[19] = test system: SR
[20] = test system: RPMI-8226

Row | SMILES | GI50 [1] | GI50 [2] | GI50 [3] | GI50 [4] | GI50 [5] | GI50 [6] | GI50 [7] | GI50 [8] | GI50 [9] | GI50 [10] | GI50 [11] | GI50 [12] | GI50 [13] | GI50 [14] | GI50 [15] | GI50 [16] | GI50 [17] | GI50 [18] | GI50 [19] | GI50 [20]
1 | O=C(Nc1cccc2ccccc12)c1ccccc1 | > 100 µM (inactive) | > 100 µM (inactive) | > 100 µM (inactive) | > 100 µM (inactive) | 11.5 µM (inactive) | > 100 µM (inactive) | 47.5 µM (inactive) | 53.5 µM (inactive) | > 100 µM (inactive) | > 100 µM (inactive) | > 100 µM (inactive) | 26.7 µM (inactive) | > 100 µM (inactive) | > 100 µM (inactive) | 24.5 µM (inactive) | 64.7 µM (inactive) | 86.7 µM (inactive) |  |  | 
2 | CCOC(=O)c1c(CN2CCNCC2)nc2ccc(Cl)cc2c1-c1ccccc1 | 1.85 µM (inactive) | 3.83 µM (inactive) | 12.6 µM (inactive) | 4.21 µM (inactive) | 4.82 µM (inactive) | 1.65 µM (inactive) | 1.79 µM (inactive) | 1.42 µM (inactive) | 3.32 µM (inactive) | 6.93 µM (inactive) | 3.44 µM (inactive) | 2.58 µM (inactive) |  | 1.81 µM (inactive) | 3.72 µM (inactive) | 2.56 µM (inactive) | 1.77 µM (inactive) | 1.86 µM (inactive) | 1.78 µM (inactive) | 2.19 µM (inactive)
3 | CC(=O)Oc1ccc2cc(Oc3ccccc3)c(=O)oc2c1 | 58.2 µM (inactive) | > 100 µM (inactive) | > 100 µM (inactive) | 80.9 µM (inactive) | 36.1 µM (inactive) | > 100 µM (inactive) | > 100 µM (inactive) | 50.4 µM (inactive) | 61 µM (inactive) |  | > 100 µM (inactive) | > 100 µM (inactive) |  | > 100 µM (inactive) | 76.9 µM (inactive) | > 100 µM (inactive) |  |  | > 100 µM (inactive) | > 100 µM (inactive)
4 | CN(C)C1(N(C)C)Oc2c(c(=O)n(C)c(=O)n2C)C(c2ccc(Br)cc2)C1(F)F (stereo not drawn) | > 100 µM (inactive) | > 100 µM (inactive) | > 100 µM (inactive) |  | > 100 µM (inactive) | > 100 µM (inactive) |  | > 100 µM (inactive) | > 100 µM (inactive) | > 100 µM (inactive) | > 100 µM (inactive) | > 100 µM (inactive) | > 100 µM (inactive) | > 100 µM (inactive) | > 100 µM (inactive) |  | > 100 µM (inactive) | > 100 µM (inactive) |  | > 100 µM (inactive)
5 | Cn1nc2ccc3nccc(N4CCN(CCO)CC4)c3c2n1 | 0.371 µM (active) | > 100 µM (inactive) | > 100 µM (inactive) | > 100 µM (inactive) | 42.3 µM (inactive) | > 100 µM (inactive) | > 100 µM (inactive) | > 100 µM (inactive) | > 100 µM (inactive) | > 100 µM (inactive) | > 100 µM (inactive) | > 100 µM (inactive) |  | > 100 µM (inactive) | > 100 µM (inactive) |  | > 100 µM (inactive) | 31.7 µM (inactive) |  | 
6 | CC(C)NC(=O)OCc1c(CO)c2c(n1C)-c1ccccc1CC2 | 25.4 µM (inactive) | 25.9 µM (inactive) | 21.7 µM (inactive) | 22.5 µM (inactive) |  |  | 24.5 µM (inactive) | 27.2 µM (inactive) | 23.7 µM (inactive) | 55.1 µM (inactive) | 34.4 µM (inactive) | 23.5 µM (inactive) | 24.5 µM (inactive) | 31.3 µM (inactive) | 26.3 µM (inactive) | 23.6 µM (inactive) | 18.3 µM (inactive) | 14.3 µM (inactive) |  | 17.7 µM (inactive)
7 | CCOC(=O)NC(Nc1ccc(S(=O)(=O)Nc2nc(C)cc(C)n2)cc1)(C(=O)OCC)C(F)(F)F (stereo not drawn) | > 100 µM (inactive) | > 100 µM (inactive) | > 100 µM (inactive) | > 100 µM (inactive) | > 100 µM (inactive) | > 100 µM (inactive) | > 100 µM (inactive) | > 100 µM (inactive) | > 100 µM (inactive) | > 100 µM (inactive) | > 100 µM (inactive) | > 100 µM (inactive) |  |  | > 100 µM (inactive) | > 100 µM (inactive) | > 100 µM (inactive) | > 100 µM (inactive) | 5.33 µM (inactive) | > 100 µM (inactive)
8 | O=C1CSC(=S)N1c1ccco1 | 79.6 µM (inactive) | > 100 µM (inactive) | > 100 µM (inactive) | 56.5 µM (inactive) |  | 25.4 µM (inactive) | > 100 µM (inactive) | 43 µM (inactive) |  | > 100 µM (inactive) | 21.9 µM (inactive) | > 100 µM (inactive) | 37.9 µM (inactive) | > 100 µM (inactive) | > 100 µM (inactive) | 66.7 µM (inactive) |  | > 100 µM (inactive) | > 100 µM (inactive) | 59.3 µM (inactive)
9 | O=[N+]([O-])c1ccc2nc3ccccc3cc2c1 | 2.04 µM (inactive) | 2.57 µM (inactive) | 2.45 µM (inactive) | 1.26 µM (inactive) | 3.63 µM (inactive) | 2.38 µM (inactive) | 2 µM (inactive) | 3.1 µM (inactive) | 3.4 µM (inactive) | 4.21 µM (inactive) |  | 13.8 µM (inactive) | 1.51 µM (inactive) | 1.34 µM (inactive) | 2.48 µM (inactive) | 2.1 µM (inactive) | 1.19 µM (inactive) | < 0.01 µM (active) |  | 
10 | c1ccc2c(c1)OC(N1CCCC1)c1cnc(N3CCCC3)nc1-2 (stereo not drawn) | 45.9 µM (inactive) | 79.6 µM (inactive) | 54.2 µM (inactive) | 51.3 µM (inactive) | 22.5 µM (inactive) | 40.3 µM (inactive) | 36.2 µM (inactive) |  | 24.3 µM (inactive) | 44.1 µM (inactive) | 41.3 µM (inactive) | 20.3 µM (inactive) |  | 20.6 µM (inactive) | 36.2 µM (inactive) | 68.1 µM (inactive) | 50.7 µM (inactive) | 24 µM (inactive) | 29.7 µM (inactive) | 20.7 µM (inactive)
11 | NC1=NC(=O)[C@H](Cc2c[nH]c3ccccc23)N1C(=O)OCc1ccccc1 | 68.5 µM (inactive) | < 0.01 µM (active) | 84.5 µM (inactive) | 46 µM (inactive) |  | > 100 µM (inactive) | > 100 µM (inactive) | 40.3 µM (inactive) | 38.1 µM (inactive) |  | > 100 µM (inactive) | 45.2 µM (inactive) | > 100 µM (inactive) | 49.3 µM (inactive) | 51.8 µM (inactive) |  | 53.8 µM (inactive) | 28.7 µM (inactive) |  | 
12 | CC(C)(Sc1cc(C(C)(C)C)c(O)c(C(C)(C)C)c1)Sc1cc(C(C)(C)C)c(O)c(C(C)(C)C)c1 [PROBUCOL] | > 100 µM (inactive) | > 100 µM (inactive) |  | > 100 µM (inactive) | > 100 µM (inactive) | > 100 µM (inactive) | > 100 µM (inactive) | > 100 µM (inactive) | > 100 µM (inactive) | > 100 µM (inactive) | > 100 µM (inactive) | 79.6 µM (inactive) | > 100 µM (inactive) | > 100 µM (inactive) | > 100 µM (inactive) | > 100 µM (inactive) | > 100 µM (inactive) |  |  | > 100 µM (inactive)
